Data from PubChem BioAssay (NCI).
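Method: 48-hour compound exposure of cells in 96-well plates, five concentrations, linear interpolation of endpoints. The concentration for full growth arrest is given as TGI.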

Experiments:
Experiment in all cases: NCI-60 cell line screen, 48 h
[1] = test system: 786-0 renal
[2] = test system: A549 NSCLC
[3] = test system: ACHN renal
[4] = test system: DU-145 prostate
[5] = test system: HCT-116 colon
[6] = test system: HL-60(TB) leukemia
[7] = test system: HS 578T breast
[8] = test system: IGROV1 ovarian
[9] = test system: K-562 leukemia
[10] = test system: M14 melanoma
[11] = test system: MCF7 breast
[12] = test system: MDA-N
[13] = test system: NCI-H226 lung
[14] = test system: RXF 393 renal
[15] = test system: SF-295 CNS
[16] = test system: SK-OV-3 ovarian
[17] = test system: UACC-257 melanoma
[18] = test system: UO-31 renal

Row | Structure (SMILES) | TGI [1] [µM] | TGI [2] [µM] | TGI [3] [µM] | TGI [4] [µM] | TGI [5] [µM] | TGI [6] [µM] | TGI [7] [µM] | TGI [8] [µM] | TGI [9] [µM] | TGI [10] [µM] | TGI [11] [µM] | TGI [12] [µM] | TGI [13] [µM] | TGI [14] [µM] | TGI [15] [µM] | TGI [16] [µM] | TGI [17] [µM] | TGI [18] [µM]
1 | C/C(=N/NC(=S)Nc1ccccc1Cl)c1ccccn1 | 15.8 | 29.6 | 8.59 | 12.8 | 14.2 | < 0.0305 | 40.2 | 13.9 | 3.25 | 3.42 | 0.27 | 19.7 | 1.65 | 11.6 | 9.57 | 13.7 | 1.07 | 12.3
2 | COC(=O)c1ccccc1C1CN=NC12Cc1ccc3ccccc3c1C2=O (centres undefined) | > 100 | > 100 | > 100 | > 100 | – | > 100 | > 100 | > 100 | > 100 | > 100 | > 100 | > 100 | > 100 | > 100 | > 100 | – | > 100 | > 100
3 | Cc1cc2nc3n[nH]c(N)c3nc2cc1C | > 100 | > 100 | > 100 | > 100 | > 100 | > 100 | > 100 | > 100 | > 100 | > 100 | > 100 | > 100 | > 100 | > 100 | > 100 | > 100 | > 100 | > 100
4 | CCOC(=O)CN1CCNCCN(CC(=O)OCC)CCNCC1 | > 100 | > 100 | > 100 | > 100 | > 100 | > 100 | > 100 | > 100 | > 100 | – | > 100 | > 100 | > 100 | > 100 | > 100 | > 100 | > 100 | > 100
5 | Brc1cccc(/C=C/CN2CCN(CCOC(c3ccccc3)c3ccccc3)CC2)c1 | 31.7 | 31.6 | 33.1 | 27.4 | 28.9 | 27.9 | 52 | 29.8 | 28.6 | 27.1 | 29.5 | 32.9 | 38.2 | 24.6 | 32.6 | 34.9 | 33.4 | 27.7
6 | COc1ccc2[nH]c(CCNC(=O)c3cc([N+](=O)[O-])cc([N+](=O)[O-])c3)cc2c1 | > 100 | > 100 | – | > 100 | > 100 | > 100 | > 100 | > 100 | > 100 | > 100 | > 100 | > 100 | > 100 | 56.9 | – | > 100 | > 100 | > 100
7 | O=C(c1ccccc1)c1ccc(C(c2c(O)c3ccccc3oc2=O)c2c(O)c3ccccc3oc2=O)cc1 | 48.9 | > 82.5 | 48.6 | > 85.7 | > 80.2 | > 100 | 64.5 | > 60.9 | > 72.1 | 63.3 | > 100 | > 71.7 | 55 | > 69.2 | 53.3 | 38.4 | 49.5 | 33
8 | O=C(OCCN=C1c2ccccc2CCc2ccccc21)c1cc([N+](=O)[O-])cc([N+](=O)[O-])c1 | > 31.6 | > 31.6 | > 31.6 | > 31.6 | > 31.6 | > 100 | > 31.6 | > 31.6 | > 100 | > 31.6 | > 31.6 | > 31.6 | > 31.6 | > 31.6 | > 31.6 | > 100 | > 31.6 | > 100
9 | CCOC(=O)c1nc2cc(N3CCOCC3)c(F)cc2[nH]c1=O | > 100 | > 100 | > 100 | > 100 | > 100 | > 100 | > 100 | > 100 | > 100 | > 100 | > 100 | > 100 | > 100 | > 100 | > 100 | > 100 | > 100 | > 100
10 | Cc1ccc(/C=C2\CN(C)CC3=C2OC(N)=C(C#N)C3c2ccc(C)cc2)cc1 (centres undefined) | 32 | 49.4 | 50 | 44.7 | 27.5 | > 100 | > 100 | 39.4 | > 100 | 43.9 | 47.8 | 38.1 | 72.4 | 28.3 | 46 | 35.3 | 43.1 | 53.4
11 | COC(CN(C)C(=O)C(C)NC(=O)c1ccccc1)OC (centres undefined) | > 100 | > 100 | > 100 | > 100 | > 100 | – | > 100 | > 100 | > 100 | > 100 | > 100 | > 100 | > 100 | > 100 | > 100 | > 100 | > 100 | –
12 | Cc1[nH]c2ncn3nc(C(Cl)(Cl)Cl)nc3c2c1Cc1ccccc1 | > 100 | > 100 | > 100 | > 100 | > 100 | > 100 | > 100 | > 100 | – | > 100 | > 100 | > 100 | > 100 | > 100 | > 100 | > 100 | > 100 | 23.3
13 | O=C(Cn1c(=O)ccn(C2OC(CO)C(O)C2F)c1=O)c1ccc(F)cc1 (centres undefined) | > 100 | > 100 | > 100 | > 100 | > 100 | > 100 | > 100 | > 100 | > 100 | – | > 100 | > 100 | > 100 | > 100 | > 100 | – | > 100 | > 100
14 | c1ccc(N=C2c3ccccc3CN2c2ccccc2)cc1 | > 100 | > 100 | > 100 | > 100 | > 100 | > 100 | > 100 | > 100 | > 100 | > 100 | > 100 | > 100 | > 100 | > 100 | > 100 | > 100 | > 100 | > 100
15 | CC(=O)N=C(N=Nc1c(O)[nH]c2ccc(C)cc12)NC(C)=O | > 100 | > 100 | > 100 | > 100 | > 100 | > 100 | > 100 | > 100 | > 100 | > 100 | > 100 | > 100 | > 100 | > 100 | > 100 | > 100 | > 100 | > 100
16 | CC/C(=N\NC(=O)c1cccnc1)c1ccc2c(c1)OCCO2 | > 100 | > 100 | > 100 | > 100 | > 100 | > 100 | 93.7 | > 100 | > 100 | > 100 | > 100 | > 100 | > 100 | > 100 | > 100 | > 100 | – | > 100
17 | CC(=O)OCC1OC(On2ccccc2=S)C(OC(C)=O)C(OC(C)=O)C1OC(C)=O (centres undefined) | > 100 | > 100 | > 100 | > 100 | > 100 | > 100 | > 100 | > 100 | > 100 | > 100 | > 100 | > 100 | – | > 100 | > 100 | > 100 | > 100 | > 100
18 | O=C(O)CC(C(=O)O)c1ccccc1[N+](=O)[O-] (centres undefined) | > 100 | > 100 | > 100 | > 100 | > 100 | > 100 | > 100 | > 100 | > 100 | > 100 | > 100 | > 100 | > 100 | > 100 | > 100 | > 100 | > 100 | > 100
19 | CN1CCCN2CCN(C)CCN(CC1)CC2 | > 100 | > 100 | > 100 | > 100 | > 100 | > 100 | > 100 | > 100 | > 100 | > 100 | > 100 | > 100 | – | > 100 | > 100 | > 100 | > 100 | > 100
20 | CCOP(=O)(OCC)C(NC(=O)OCC(Cl)(Cl)Cl)n1nnc(C(=O)OC)c1C(=O)OC (centres undefined) | > 100 | > 100 | > 100 | > 100 | > 100 | > 100 | > 100 | > 100 | > 100 | > 100 | > 100 | > 100 | > 100 | > 100 | > 100 | > 100 | > 100 | > 100
21 | COc1c(CC=C(C)C)c(O)c(C(CC(C)C)c2c(O)c(C(C)=O)c(O)c3c2OC(C(C)(C)O)C3)c(O)c1C(C)=O (centres undefined) | > 12.5 | > 12.5 | > 12.5 | > 12.5 | > 12.5 | 6.57 | > 12.5 | > 12.5 | > 12.5 | > 12.5 | > 12.5 | > 12.5 | > 12.5 | 8.56 | – | – | 9.32 | > 12.5
22 | CN(C1=NCCO1)c1cccc2ccccc12 | – | > 10 | > 10 | > 10 | > 10 | > 10 | > 10 | > 10 | > 10 | > 10 | > 10 | > 10 | > 10 | > 10 | > 10 | > 10 | – | > 10
23 | CCC1(C)C=Cc2c(cc(OC)c3c(=O)c4ccccc4n(C)c23)O1 (centres undefined) | > 10 | > 10 | > 10 | > 10 | > 10 | – | > 10 | > 10 | > 10 | > 10 | > 10 | > 10 | > 10 | 5.52 | > 10 | > 10 | > 10 | 2.39
24 | Clc1ccc(-c2nn3c(CCCCCCCCc4nnc5sc(-c6ccc(Cl)cc6)nn45)nnc3s2)cc1 | 60 | > 64.5 | > 100 | > 61.4 | 75 | – | > 100 | > 100 | > 100 | 67.5 | > 73.3 | > 94.7 | > 100 | > 62.4 | 46.6 | > 90.4 | > 95.2 | 29.4
25 | CNC(=S)/C(=N\Nc1nc[nH]c1C(N)=O)C(N)=S | > 100 | > 100 | 61.8 | 34.9 | > 100 | 7.83 | > 81.8 | > 61 | – | > 100 | > 100 | > 63 | > 33.9 | > 100 | 41.6 | > 31.6 | > 100 | 18.3
26 | CC(C)(C)OC(=O)[N+](=N)C(=O)C1CCC(=O)N1C(=O)OCc1ccccc1 (centres undefined) | > 100 | > 100 | > 100 | > 100 | > 100 | > 100 | > 100 | > 100 | > 100 | > 100 | > 100 | > 100 | > 100 | > 100 | > 100 | > 100 | – | > 100
27 | Cc1ccc2c(c1)SSSSS2 | 37.2 | 48.7 | 34.9 | 31.2 | 30.6 | 42.2 | 69.6 | 40.8 | > 100 | 58.6 | 43 | 87.1 | – | 39 | 37 | 39.8 | 38.5 | 33
